We go through three compounds from patent publication US20170360726A1, “COMPOUNDS, COMPOSITIONS AND METHODS OF USE” (Aquinnah Pharmaceuticals, Inc., priority 2014, published 2017).

pIC50: −log10 of the molar value. Read-outs that look alike come from different tables or passages of the source.

Experiment [1] has as its system TDP-43 inclusions in PC12 cells stably expressing wild type (WT) TDP-43-GFP. The experiment in a line: Dose response assay for TDP-43 inclusion inhibition. The following applies: Rattus norvegicus, PC-12. The format is cell-based. The method, then: Example 3. Dose Response Assay for TDP-43 Inhibition
Exemplary compounds of the invention were evaluated for efficacy in inhibiting TDP-43 inclusions using a dose response assay. Briefly, PC12 cells stably expressing wild type (WT) TDP-43-GFP were stressed with 15 μM to induce TDP-43 inclusions. The cells were then treated with exemplary compounds of the invention and the inhibitory effect on TDP-43 inclusions was observed using fluorescent microscopy. The ratio of cells with TDP-43 inclusions was calculated based on the total number of cells with detectable GFP expression. A 12-point dose response curve was generated, and the IC50 for each compound tested was determined.

Experiment [2] deals with Embryonic mouse hippocampal neurons transduced with TDP-43 EGFP. The experiment in a line: Neuroprotection assay (dendrite length rescue). The following applies: average rescue total dendrite length; compound at 10 times the IC50, treated DIV7, 9, 11, fixed DIV12. The format is cell-based. As for the experimental part:
Example 4. Neuroprotection Assay
1× Hank's balanced salt solution (Ca—/Mg, 500 mL) and 10 mM HEPES, pH 7.25-7.3 (IM stock, 5 mL)
MEM (Earle salts+/Glutamine, 95 mL), FBS (to 2.5%, 2.5 mL), Pen/Strep (1×, 1 mL), glutamine (1×, 1 mL), and D-glucose (0.6% w/v, 0.6 g)
neurobasal media (96 mL), B27 supplement (2 mL), Pen/Strep (1 mL), and glutamine (1 mL).
Embryonic mouse hippocampal neurons were cultured according to Kaech, S. and Banker, G. (2006) Nat Protoc 1:2406-2415 and dissected at […] from CD1 mice. Once all the hippocampi were removed, they were placed in a 15 mL conical Falcon tube on ice and brought to a final volume of 4.5 mL with CMF dissection buffer. 0.5 mL of a 2.5% trypsin-EDTA solution was then added, and the mixture was incubated at 37° C. for 15 min. […] Neurons were traced and analyzed using NeuronJ.
Results of the neuroprotection assay for exemplary compounds of the invention are summarized in Table 1, wherein A represents an average rescue total dendrite length of >150%; B represents an average rescue total dendrite length of 100-149%; C represents an average rescue total dendrite length of 50-99%; D represents an average rescue total dendrite length of 0-49%; E represents an average rescue total dendrite length of <0%; and ND signifies that the average rescue total dendrite length was not determined.

Setting [3] is: inhibition of TDP-43 inclusions, PC12 cells expressing WT TDP-43-GFP, 12-point dose response, fluorescent microscopy, read-out: IC50.

Regarding `CCc1cccc(C)c1NS(=O)(=O)c1ccccc1C(=O)N1CCCC1` [Compound 100, N-(2-ethyl-6-methylphenyl)-2-(pyrrolidine-1-carbonyl)-benzenesulfonamide], in experiment [1] (setting [3]), the pIC50 was under 6.30. The “Average Additive Dendrite Length (%)” value in experiment [2] is “C (C represents an average rescue total dendrite length of 50-99%)”.

As for `CCc1cccc(C)c1NS(=O)(=O)c1cnccc1C(=O)N1CCCC1` [Compound 101, N-(2-ethyl-6-methylphenyl)-4-(pyrrolidine-1-carbonyl)pyridine-3-sulfonamide], the pIC50 in experiment [1] (setting [3]) is over 7.00. Further, in experiment [2], the “Average Additive Dendrite Length (%)” value is reported as “C (C represents an average rescue total dendrite length of 50-99%)”.

`CCc1cccc(C)c1NS(=O)(=O)c1cccnc1` [Compound 102, N-(2-ethyl-6-methylphenyl)pyridine-3-sulfonamide] had a pIC50 in experiment [1] of 6.60 to 7.00.

By pIC50 is commonly meant the negative decadic logarithm of the IC50, by convention in mol/L.
